Reference: article PMC5156807, “Stabilized Polymer Micelles for the Development of IT-147, an Epothilone D Drug-Loaded Formulation” (Journal of Drug Delivery, 2016)
Like-named read-outs stand apart in the source and are kept apart here.

Legend:
[1] = Stability of drug substance in pilot formulations (mass spectrometry); type: physicochemical
Text: Epothilones B and D were selected for encapsulation using triblock copolymers. […] This was not completely surprising as stability of epothilone B both in vitro and in vivo has been addressed in the literature. Epothilone D, the alkene derivative of epothilone B (also known as desoxy-epothilone B), was selected as the preferred drug substance for encapsulation due to increased stability in aqueous environments and pH fluctuations. A small library of triblock copolymers was used to conduct pilot formulations of epothilone D drug-loaded micelles, with the ultimate goal to select IT-147, the lead for development of an epothilone D encapsulated polymer micelle formulation. Five of the polymers chosen for the library contained stabilizing blocks comprised of hydroxamic acid functionalized poly(glutamic acid), and five of the polymers contained poly(cysteine) amino acid moieties as stabilizing blocks (Figure 2, Table 1). All polymers contained a 12 kDa PEG and a mixture of hydrophobic amino acids with D and L isomers in the core block. Pilot formulations were characterized by determining formulation efficiency, epothilone D drug loading (% w/w), average particle diameter, and retention of epothilone D following dialysis above and below the critical micelle concentration (Table 1).

[2] = intraperitoneal bolus, mouse tumor models; cited from earlier work
[3] = Dialysis stability / pH-dependent release assay; type: physicochemical; conditions: 20 mg/mL, 3500 MWC, 10 mM phosphate buffer, 6 hours, room temperature; epothilone D retained
Protocol: Retention of the epothilone drug substance within the micelle formulation and the release profile of the drug substance over time, concentration, and pH were investigated using dialysis. Formulations were reconstituted at concentrations of 20 mg/mL and 0.2 mg/mL and placed in dialysis tubing with 3500 MWC pore size, which allows for retention of the micelles within the bag and release of the free drug from the bag into the reservoir. A volume of 3 mL of reconstituted formulation was placed into dialysis bags and then placed in a 300 mL reservoir containing 10 mM phosphate buffer and stirred for 6 hours at room temperature. HPLC assay for epothilone concentration of the formulation inside the bag was done before and after dialysis to determine the percentage of epothilone retained inside the dialysis bag over 6 hours. pH-dependent release was performed using 10 mM phosphate buffer at pH 3, 4, 5, 6, 7, 7.4, and 8 in the reservoirs during dialysis.

[4] = Plasma pharmacokinetic screening of pilot formulations in cannulated rat model; type: in vivo, Sprague-Dawley rats; conditions: rat plasma epothilone D, 10 mg/kg fast bolus jugular vein catheter
Protocol: The lead hydroxamic acid and cysteine containing formulations were compared to free epothilone D using a cannulated rat model by administering a 10 mg/kg dose by fast bolus to the jugular vein catheter. Female, Sprague-Dawley rats surgically modified with jugular vein catheters exteriorized posteriorly were purchased from Harlan Labs. Catheters were flushed and maintained with heparinized saline to ensure patency over the study period. The catheter port was used for both test article administration and blood collection. IT-147 pharmacokinetics at 20, 30, and 40 mg/kg were compared to epothilone D free drug at 20 mg/kg in the cannulated rat model. IT-147 was reconstituted in saline, while epothilone D free drug was reconstituted in cremaphor : ethanol : saline at 1 : 1 : 4 ratio. All in vivo studies were conducted under Institutional Guidelines. The Institutional Animal Care and Use Committee (IACUC), at the University of South Florida (USF), approved all rat in vivo study protocols. Animals were maintained and evaluated under pathogen-free conditions in accordance with USF College of Medicine IACUC standards of care. Approximately 300 μL of blood was collected into K2EDTA tubes containing PMSF (final concentration 2.5 mM) at time points of 1, 5, 15, and 60 minutes after test article administration. Samples were centrifuged at 2000 RPM for 5 minutes to isolate plasma. Plasma was aliquoted into microcentrifuge tubes and frozen at −20°C until processed for HPLC/UV analysis. […]
Stability of polymer micelles to dilution is one of the most important physiochemical characteristics for a formulation to be successful in vivo. […] The top two candidates from the pilot epothilone D formulations were evaluated, along with epothilone D free drug, using a cannulated rat model for pharmacokinetics. Selection of the lead epothilone D formulation, termed IT-147, was determined from the exposure of epothilone D to the plasma compartment by calculating the area under the concentration versus time curve (AUC) and maximum concentration (C max). […]

[5] = Pilot toxicokinetic dose range-finding study in cannulated rat model; type: in vivo, Sprague-Dawley rats; conditions: for Dose limiting Toxicities / average weight loss: rat, 20 mg/kg; for Dose limiting Toxicities: w.l. = weight loss; for average weight loss: four days
Protocol: The lead hydroxamic acid and cysteine containing formulations were compared to free epothilone D using a cannulated rat model by administering a 10 mg/kg dose by fast bolus to the jugular vein catheter. Female, Sprague-Dawley rats surgically modified with jugular vein catheters exteriorized posteriorly were purchased from Harlan Labs. Catheters were flushed and maintained with heparinized saline to ensure patency over the study period. The catheter port was used for both test article administration and blood collection. IT-147 pharmacokinetics at 20, 30, and 40 mg/kg were compared to epothilone D free drug at 20 mg/kg in the cannulated rat model. IT-147 was reconstituted in saline, while epothilone D free drug was reconstituted in cremaphor : ethanol : saline at 1 : 1 : 4 ratio. All in vivo studies were conducted under Institutional Guidelines. The Institutional Animal Care and Use Committee (IACUC), at the University of South Florida (USF), approved all rat in vivo study protocols. Animals were maintained and evaluated under pathogen-free conditions in accordance with USF College of Medicine IACUC standards of care. Approximately 300 μL of blood was collected into K2EDTA tubes containing PMSF (final concentration 2.5 mM) at time points of 1, 5, 15, and 60 minutes after test article administration. Samples were centrifuged at 2000 RPM for 5 minutes to isolate plasma. Plasma was aliquoted into microcentrifuge tubes and frozen at −20°C until processed for HPLC/UV analysis. The following bioanalytical method is a modification of the procedure originally developed by Yuan et al.. Bioanalytical sample preparation was performed by liquid : liquid extraction. 50 μL of plasma sample was added to 600 μL of n-butyl chloride and vortexed for 10 minutes. Samples were centrifuged at 10,000 RPM for 10 minutes and the organic supernatant was aliquoted into microcentrifuge tubes. The n-butyl chloride supernatant was evaporated to dryness using a turbovap with nitrogen flow at room temperature, and 75 μL of a 40% acetonitrile in water solution was added to each tube. Samples were then vortexed for 5 minutes, aliquoted into HPLC vials, and processed using HPLC methodology as described in Section 2.3. Blank rat plasma containing PMSF was used to spike in epothilone D for standard curve preparation and processed as described for the plasma samples to determine concentration of epothilone D isolated from the samples collected from the cannulated rats. Noncompartmental analysis of the pharmacokinetic data was done using Phoenix WinNonlin version 6.3.
A pilot dose range-finding toxicokinetic study in a cannulated rat model was performed to support future full scale toxicokinetic studies of IT-147. Doses of IT-147 at 20, 30 and 40 mg/kg were compared to epothilone D free drug at 20 mg/kg (Table 3, Figure 7) followed by monitoring of animal weight change, gross signs of clinical toxicity, and limited plasma sampling for pharmacokinetic analysis (Table 4). IT-147 was reconstituted in saline while epothilone D free drug was administered in a cremaphor : ethanol : saline mixture. Test articles were given by fast bolus to the rat jugular vein, and blood was collected at time points of 1 minute, 5 minutes, 15 minutes, 1 hour, 2 hours, 4 hours, and 6 hours. […] Samples collected after the 1-hour time point were below the limit of quantitation for analysis. […] It was concluded that 20 mg/kg epothilone D free drug was above the maximum tolerated dose for these animals. […] Animals were monitored for one week following test article administration. […] Animals were monitored for four days after test article administration and were euthanized on the fourth day due to welfare concerns. […] It was concluded that 40 mg/kg epothilone D from IT-147 was above the maximum tolerated dose for these animals.

[6] = female, Sprague-Dawley, iv, rat plasma, 20 mg/kg epothilone D equivalent, fast bolus jugular vein

Row | SMILES | stability of the drug substance (epoxide ring) under formulation conditions [1] | LD50 [2] [mg/kg] | maximum tolerated dose [2] [mg/kg] | Dialysis > CMC (% remaining) [3] [%] | concentration at 60 min ([4]; female, Sprague-Dawley, intravenous, 60 minutes, read-out: Clast) [ng/mL] | Cmax ([4]; female, Sprague-Dawley, intravenous, at 1 minute) [ng/mL] | AUC(0-1 h) [4] [h∗µg/mL] | maximum tolerated dose ([5]; cannulated rat, single fast bolus, epothilone D equivalent, listed as epothilone D free drug) [mg/kg] | Cmax [5, 6] [ng/mL] | clearance [5, 6] [mL/min/kg] | half-life ([5]; female, Sprague-Dawley, iv, terminal, rat plasma, 20 mg/kg epothilone D equivalent, fast bolus jugular vein) [min] | AUC(0–6 h) ([5]; rat plasma, 20 mg/kg epothilone D equivalent, fast bolus jugular vein) [h∗µg/mL] | Dose limiting Toxicities ([5]; 20 mg/kg epothilone D equivalent, listed as Epo D) | Dose limiting Toxicities ([5]; 20 mg/kg epothilone D equivalent, listed as Epothilone D free drug) | Dose limiting Toxicities ([5]; 20 mg/kg epothilone D equivalent, listed as epothilone D free drug) | average weight loss ([5]; listed as Epothilone D free drug) [%] | average weight loss ([5]; listed as epothilone D free drug)
1 | C/C(=C\c1csc(C)n1)[C@@H]1C[C@@H]2O[C@]2(C)CCC[C@H](C)[C@H](O)[C@@H](C)C(=O)C(C)(C)[C@@H](O)CC(=O)O1 [epothilone B] | unstable to all experimental formulation conditions | 0.6 | 0.3 | – | – | – | – | – | – | – | – | – | – | – | – | – | –
2 | C/C1=C/C[C@@H](/C(C)=C/c2csc(C)n2)OC(=O)C[C@H](O)C(C)(C)C(=O)[C@H](C)[C@@H](O)[C@@H](C)CCC1 [epothilone D] | – | – | 25 | 15 | 1600 ± 800 | 19700 ± 4100 | 5.2 | < 20 | 32200 | 40.2 | 18 | 8.3 | >10% w.l. lethargy impaired gait orbital-bleeding | lethargy, impaired gait, orbital bleeding, porphyrin accumulation around the face, and disheveled fur | lethargy, gait impairment, and retro-orbital bleeding | 12 | greater than 10%
